# Laboratory results taken from patent US11987589B2, “Heterocyclic flavone derivatives, compositions, and methods related thereto” (Emory University, priority 2018, dated 2024).
# pEC50: −log10 of the molar value. “Also recorded” adds a separate entry of the source.
# Columns and labels:
# 5×FAD mice [1] = experiment: Morris water maze test in 5×FAD mice; format: in vivo, mouse
# Method: The hippocampus-dependent spatial memory of 5×FAD mice was tested by Morris water maze test. The average latency and swim path length for each of the 5 acquisition days were calculated and plotted. […] The memory recall for the platform location was assessed in the probe trail when the platform was removed, and the mice were allowed to search for 60 s.
# T48 cells = experiment: Protection from staurosporine (STS)-induced apoptosis, MTT assay, T48 cells; format: cell-based
# Method: Cytoprotective effects were tested. To examine whether these compounds protect cells from staurosporine (STS)-induced apoptosis, MTT assays were conducted using TrkB stable transfected cells or TrkB deficient SN56 cells.
# Water solubility = format: physicochemical
# [2] = Hepatocyte Stability (mouse); conditions: hepatocytes
# TrkB [3] = target: T1, TrkB (Mus musculus, UniProt P15209); experiment: TrkB activation in brain of 5×FAD mice after chronic oral administration; format: in vivo
# T1 construct: from tissue; host or cells: brain (hippocampus) of 5xFAD mice
# Description: After 3 months of drug treatment, TrkB activation was monitored in the mouse brain by immunofluorescence with anti-phosphorylated TrkB (p-TrkB) antibody.
# Plasma Stability (mouse) = format: in vitro ADME
# TrkB [4] = experiment: Endogenous TrkB activation in DIV13 primary cortical cultures, immunoblotting; format: cell-based; conditions: 15 min
# Method: Endogenous TrkB activation in primary neurons were tested in DIV13 primary cortical cultures. The neurons were treated with the two compounds with doses for 15 min. The lysates were analyzed by immunoblotting with antibodies.
# [5] = Microsomal Intrinsic Clearance (human); conditions: liver microsomes; for microsomal CLint: Human microsomes
# [6] = Microsomal Intrinsic Clearance (mouse); conditions: liver microsomes; for microsomal CLint: Mouse microsomes
# BBB-PAMPA Permeability = format: in vitro ADME
# IL-6 = experiment: Inflammatory factor IL-6 in 5×FAD mouse brains; format: in vivo
# 5×FAD mice [7] = experiment: Synaptic loss and plasticity in 5×FAD mice (Golgi staining, electron microscopy, immunoblotting, LTP); format: in vivo, mouse
# Method: The dendritic spines from apical dendritic layer of the CA1 region were analyzed by Golgi staining. (Scale bar, […]). On top is quantitative analysis of the spine density.
# Synaptic loss is believed to be the basis of cognitive impairment in the early phase of Alzheimer's disease. […] The density of dendritic spines along individual dendrites of pyramidal neurons were assessed by Golgi staining. […] Since one dendritic spine can form more than one synapse, the densities of synapse in the CA1 area were quantified in 5×FAD mice brain by electron microscopy. […] Immunoblotting was done using pre-synaptic markers (synaptotagmin) and post-synaptic markers (GluR1, PSD95 and spinophilin).
# TrkB [8] = target: T2, TrkB (Rattus norvegicus, UniProt Q63604); experiment: TrkB activation in rat TrkB stably transfected SN56 cells (T48), immunoblotting; format: cell-based
# T2 construct: expressed in transfected cells
# in vivo [9] = conditions: ICR, mouse, po, 5 mg/kg
# Method: The compounds were orally administered into wild-type mice or 3×Tg, an Alzheimer's disease (AD) mouse model. […] Pharmacokinetic analysis was performed using non-compartmental methods.
# Aβ = Aβ deposition in 5×FAD mice (immunohistochemistry, thioflavin-S, ELISA); format: in vivo, mouse
# Method: The deposition of Aβ was tested by immunohistochemistry with anti-AP antibody.
# [10] = Hepatocyte Stability (human); conditions: hepatocytes
# in vivo [11] = conditions: mouse; for B/P Ratio, individual animal / Plasma concentration, Mean / Kp at 1 h / Kp at 2 h / Kp at 4 h: male; for Kp at 1 h / Kp at 2 h / Kp at 4 h: B/P Ratio
# Method: The concentration ratio of brain/plasma was calculated, and PK analysis was performed using a non-compartmental method.
# Plasma Stability (human) = format: in vitro ADME
# [12] = In vitro plasma, hepatocyte and liver microsomal stability assays (summary statement); format: in vitro ADME
# [13] = tested on: Delta-secretase (AEP, asparagine endopeptidase); experiment: AEP activation and APP and Tau proteolytic cleavage in 5×FAD mice; format: in vivo, mouse
# Method: The processing of APP and Tau by AEP was evaluated by western blot.
# Delta-secretase (AEP, asparagine endopeptidase) cleaves both APP and Tau, mediating AD pathogenesis. […] To further investigate APP proteolytic cleavage activity by AEP, immunofluorescent co-staining was conducted on 5×FAD brain section with anti-APP C585 and AEP antibodies.
# [14] = NADPH-dependent CLint, with NADPH
# [15] = NADPH-dependent T1/2, Human microsomes, with NADPH
# [16] = NADPH-free T1/2, Human microsomes, NADPH-free
# [17] = NADPH-dependent T1/2, Mouse microsomes, with NADPH
# [18] = NADPH-free T1/2, Mouse microsomes, NADPH-free
# [19] = ICR, iv, 2 mg/kg, individual animal
# T2 sequence (Q63604 32-821): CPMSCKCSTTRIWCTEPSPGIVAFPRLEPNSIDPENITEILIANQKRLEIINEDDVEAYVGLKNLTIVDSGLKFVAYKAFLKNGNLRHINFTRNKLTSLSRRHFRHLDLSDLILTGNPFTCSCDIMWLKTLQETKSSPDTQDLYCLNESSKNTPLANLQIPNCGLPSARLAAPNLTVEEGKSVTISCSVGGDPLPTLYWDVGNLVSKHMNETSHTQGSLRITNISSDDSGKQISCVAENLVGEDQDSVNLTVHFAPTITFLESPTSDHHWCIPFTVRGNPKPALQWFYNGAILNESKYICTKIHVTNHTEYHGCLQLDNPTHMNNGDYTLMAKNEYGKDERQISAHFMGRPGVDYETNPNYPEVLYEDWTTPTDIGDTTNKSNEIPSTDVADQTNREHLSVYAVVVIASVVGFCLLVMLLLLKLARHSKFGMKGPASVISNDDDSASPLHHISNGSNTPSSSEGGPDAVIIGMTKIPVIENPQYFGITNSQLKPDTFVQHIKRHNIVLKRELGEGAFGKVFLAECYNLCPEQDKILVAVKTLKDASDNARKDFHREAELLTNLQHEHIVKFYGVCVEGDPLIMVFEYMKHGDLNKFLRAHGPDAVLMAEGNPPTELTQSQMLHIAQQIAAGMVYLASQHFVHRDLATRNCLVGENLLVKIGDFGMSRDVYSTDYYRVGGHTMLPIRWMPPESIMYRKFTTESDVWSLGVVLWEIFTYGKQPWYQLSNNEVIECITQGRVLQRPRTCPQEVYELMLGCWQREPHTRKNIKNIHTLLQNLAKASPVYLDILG
# T1 sequence (P15209 32-821): as the sequence (Q63604 32-821) above, with M3T, T9S, T10A, I32V, K63R, G84S, T153M, I185L, T394S, N770S counted along it
smiles,measurement,setting,value
"N#Cc1ccc(-c2cc(=O)c3ccc4[nH]c(C(F)(F)F)nc4c3o2)cc1 [CF3-CN, 4-(6-oxo-2-(trifluoromethyl)-3,6-dihydrochromeno[7,8-d]imidazol-8-yl)benzonitrile]","learning impairment, area under curve (AUC) of latency","5×FAD mice [1]; Morris water maze, 5 acquisition days",attenuated; also recorded: improves the spatial learning and memory
same,AUC of the swim path distance,"5×FAD mice [1]; Morris water maze, no significant statistic differences",reduction trend
same,percentage of time spent in target quadrant,"5×FAD mice [1]; probe trial, 60 s",significantly higher percentage of time in the target quadrant
same,pEC50,T48 cells,7.57
same,water solubility (comparison),Water solubility,more water soluble than RM-CN
same,Avg % Remaining at Last Point,[2],94.8%
same,half-life,[2],> 8 h
same,hepatocyte CLint,[2],< 2.9 µL/min/1e6 cells
same,TrkB activation in the hippocampus,"TrkB [3]; oral 3 mg/kg, anti-p-TrkB Y816 immunofluorescence",provoked TrkB activation in the hippocampus
same,total TrkB level in mouse brain,"TrkB [3]; oral, 3 months of treatment",not total TrkB level were notably elevated
same,TrkB activation (p-TrkB signals) in mouse brain,"TrkB [3]; oral, 3 months of treatment, vs vehicle",markedly activated
same,phosphorylation of TrkB receptors and downstream AKT and ERK/MAPK pathways,"TrkB [3]; oral, 3 months, vs vehicle control",more prominently phosphorylated
same,Avg % Remaining at Last Point,Plasma Stability (mouse),107%
same,half-life,Plasma Stability (mouse),> 8 h
same,TrkB activation in primary neurons,TrkB [4],dose-dependent effect in triggering TrkB activation
same,microsomal CLint,[5]; [14],< 12.8 µL/min/mg
same,half-life,[5]; [15],> 3 h
same,microsomal CLint,"[5]; NADPH-free CLint, NADPH-free",< 12.8 µL/min/mg
same,half-life,[5]; [16],> 3 h
same,microsomal CLint,[6]; [14],< 12.8 µL/min/mg
same,half-life,[6]; [17],> 3 h
same,microsomal CLint,"[6]; NADPH-free CLint, NADPH-free",< 12.8 µL/min/mg
same,half-life,[6]; [18],> 3 h
same,Pe,BBB-PAMPA Permeability; Test Conc. 10 μM,3.09
same,recovery at 10 μM,BBB-PAMPA Permeability; Test Conc. 10 μM,89.9%
same,inflammatory factors IL-6,IL-6,repressed
same,LTP (long-term potentiation),"5×FAD mice [7]; fEPSPs induced by 3×TBS, vs vehicle",increased LTP; also recorded: reversed the LTP impairment
same,"synaptic markers (synaptotagmin, GluR1, PSD95, spinophilin), immunoblotting",5×FAD mice [7]; repeated oral administration,reversed the reduction of synaptic markers
same,synaptic density (electron microscopy),"5×FAD mice [7]; repeated oral administration, CA1 area",remarkably reversed the loss of synaptic density in a dose-dependent way
same,density of dendritic spines (Golgi staining),"5×FAD mice [7]; repeated oral administration, CA1 region",noticeably rescued; also recorded: prevents or reverses the synaptic loss
same,pEC50,"TrkB [8]; treated 15 min, immunoblotting, read-out: EC50 of p-TrkB 706 and 816 activation",7.66
same,AUC,in vivo [9],68500 ng·h/mL
same,number of plaques and plaque area fraction,"Aβ; cortex and hippocampus, vs vehicle control",significantly decreased
same,Aβ42 concentrations (ELISA),Aβ; differences not statistically significant,reduction trend
same,Aβ deposition (immunohistochemistry),"Aβ; oral, vs vehicle group",significantly lower; also recorded: decreases Aβ plaque deposition
same,Avg % Remaining at Last Point,[10],97.2%
same,half-life,[10],> 8 h
same,hepatocyte CLint,[10],< 2.9 µL/min/1e6 cells
same,Cmax,"in vivo [11]; ICR, iv, 2 mg/kg",12700 ng/mL
same,Tmax,"in vivo [11]; ICR, iv, 2 mg/kg",4.8 min
same,"B/P Ratio, individual animal","in vivo [11]; ICR, iv, 2 mg/kg, 1 h",0.01
same,"Plasma concentration, Mean","in vivo [11]; ICR, iv, 2 mg/kg, 1 h",5288.5 ng/mL
same,"B/P Ratio, individual animal","in vivo [11]; ICR, iv, 2 mg/kg, 2 h",0.01
same,"Plasma concentration, Mean","in vivo [11]; ICR, iv, 2 mg/kg, 2 h",2154.5 ng/mL
same,"Plasma concentration, Mean","in vivo [11]; ICR, iv, 2 mg/kg, 4 h",544.8 ng/mL
same,Kp at 1 h,"in vivo [11]; ICR, iv, 2 mg/kg, Mean",0.01
same,Kp at 2 h,"in vivo [11]; ICR, iv, 2 mg/kg, Mean",0.01
same,Kp at 4 h,"in vivo [11]; ICR, iv, 2 mg/kg, Mean",0.02
same,Kp at 1 h,in vivo [11]; [19],0.02
same,Kp at 2 h,in vivo [11]; [19],0.01
same,Kp at 4 h,in vivo [11]; [19],0.02
same,passage of the blood-brain barrier,in vivo [11],can pass the blood-brain barrier
same,Avg % Remaining at Last Point,Plasma Stability (human),94.2%
same,half-life,Plasma Stability (human),> 8 h
same,stability (comparison),[12],more stable than RM-CN
same,Tau N368 staining,[13]; 5×FAD brain section,repressed
same,APP C585 immuno-signals,"[13]; 5×FAD brain section, immunofluorescent co-staining",strongly inhibited
same,AEP activity (enzymatic assay),"[13]; 5×FAD mice, 3 mg/kg",blocked
same,AEP expression in Hippocampus,"[13]; 5×FAD mice, immunofluorescence",progressively attenuated
same,Mature and active AEP (immunoblotting),[13]; 5×FAD mouse brains,decreased; also recorded: significantly inhibited AEP activation
same,"AEP-cleaved APP N373, N585 and Tau N368 truncates","[13]; 5×FAD mouse brains, western blot",reduction; also recorded: attenuated Tau and APP cleavage
"CC(C)[N+](C)(CCOC(=O)C1c2ccccc2Oc2ccccc21)C(C)C [Propantheline, reference compound]",half-life,Plasma Stability (mouse),0.37 h
same,Avg % Remaining at Last Point,Plasma Stability (human),3.15%
same,half-life,Plasma Stability (human),0.398 h
"Cc1ncc2n1-c1ccc(Cl)cc1C(c1ccccc1F)=NC2 [Midazolam, reference compound]",Avg % Remaining at Last Point,[2],34.0%
same,half-life,[2],0.657 h
same,hepatocyte CLint,[2],35.1 µL/min/1e6 cells
same,microsomal CLint,[5]; [14],511 µL/min/mg
same,half-life,[5]; [15],0.0753 h
same,microsomal CLint,"[5]; NADPH-free CLint, NADPH-free",< 12.8 µL/min/mg
same,half-life,[5]; [16],> 3 h
same,microsomal CLint,[6]; [14],1100 µL/min/mg
same,half-life,[6]; [17],0.035 h
same,microsomal CLint,"[6]; NADPH-free CLint, NADPH-free",< 12.8 µL/min/mg
same,half-life,[6]; [18],> 3 h
same,Avg % Remaining at Last Point,[10],9.82%
same,half-life,[10],0.595 h
same,hepatocyte CLint,[10],38.8 µL/min/1e6 cells
"Cn1c(=O)[nH]c2ccc3c(=O)cc(-c4ccc(C#N)cc4)oc3c21 [RM-CN, 4-(1-methyl-2,6-dioxo-1,2,3,6-tetrahydrochromeno[7,8-d]imidazol-8-yl)benzonitrile]",pEC50,T48 cells,7.90
same,Avg % Remaining at Last Point,[2],67.1%
same,half-life,[2],4.58 h
same,hepatocyte CLint,[2],5.04 µL/min/1e6 cells
same,Avg % Remaining at Last Point,Plasma Stability (mouse),80.3%
same,half-life,Plasma Stability (mouse),5.75 h
same,TrkB activation in primary neurons,TrkB [4],dose-dependent effect in triggering TrkB activation
same,microsomal CLint,[5]; [14],30.3 µL/min/mg
same,half-life,[5]; [15],1.27 h
same,microsomal CLint,"[5]; NADPH-free CLint, NADPH-free",< 12.8 µL/min/mg
same,half-life,[5]; [16],> 3 h
same,microsomal CLint,[6]; [14],231 µL/min/mg
same,half-life,[6]; [17],0.167 h
same,microsomal CLint,"[6]; NADPH-free CLint, NADPH-free",< 12.8 µL/min/mg
same,half-life,[6]; [18],> 3 h
same,Pe,BBB-PAMPA Permeability; Test Conc. 1 μM,2.82
same,recovery at 1 μM,BBB-PAMPA Permeability; Test Conc. 1 μM,71%
same,effects on p-TrkB 816,"TrkB [8]; different doses, 15 min",behaved inversely
same,p-Akt/p-MAPK downstream signals,"TrkB [8]; different doses, 15 min",increased in a dose-dependent manner
same,p-TrkB 706 activation,"TrkB [8]; different doses, 15 min",activated p-TrkB 706 gradually
same,Avg % Remaining at Last Point,[10],54.8%
same,half-life,[10],2.22 h
same,hepatocyte CLint,[10],10.5 µL/min/1e6 cells
same,Avg % Remaining at Last Point,Plasma Stability (human),91.1%
same,half-life,Plasma Stability (human),> 8 h
